“Also recorded” adds a separate entry of the source. Where no end group is shown, it is not given here.
Assays:
rotavirus strain SA 11 = experiment: Biological activity of trypsin fragments and synthetic versions, MA104 cells infected with rotavirus; format: cell-based; conditions: tested at 20, 10, 5, 2.5, and 1.0 μg/ml
Protocol: Biological Activity of Fragments: Initially, the inhibitory activity of the fragments was tested on African green monkey kidney cells MA104 infected with rotavirus strain SA 11. Dulbecco Modified Eagle's Medium (DMEM) containing 10% newborn calf serum (NBCS), L-glutamine and the antibiotics penicillin and streptomycin was used to grow MA 104 and HEp2 cells into monolayers after being monodispersed with a mixture of trypsin/EDTA. The same medium without serum, containing 1 μg/ml trypsin, designated as “special medium,” was used after infecting MA 104 cells with SA 11 virus including the controls. Initially, each fraction was tested on monolayers of MA 104 cells grown in 48 well plates and infected at 10^−2 dilution of SA 11 virus. Before infecting, MA 104 cells were washed with serum free medium. The virus was allowed to absorb for 1 hour at 37° C. in a humid CO2 incubator. After absorption, 0.9 ml of medium was added to each well. Each fraction was tested at the concentration of 20, 10, 5, 2.5, and 1.0 μg/ml. Cells infected with virus received PBS to serve as positive controls, for virus CPE. The tests were read after six days.
The sequencing and synthesis was contracted out to the Protein Core Laboratory of Baylor College of Medicine, Houston, Tex.

rotavirus SA 11 strain = experiment: Infectivity inhibition by natural and synthetic RIP, rotavirus in MA 104; format: cell-based; conditions: 10 μg/ml; for Log TCID/50: six days
Protocol: (§1) Infectivity Inhibition of RNA Viruses by Synthetic RIP: For comparison, the natural and the synthetic RIPs were tested in cell cultures infected with different RNA viruses. The cell line MA 104 was used for infecting rotavirus SA 11 strain. HEp2 cells were used for infecting RSV and PIV3 viruses. The cells were infected in serial dilutions from 10^−2 to 10^−8; three wells were used for each dilution. After absorption of the virus, the cultures were divided into three groups. Group one received medium containing PBS as a positive control, group two received medium containing 10 μg/ml of natural RIP, and for the remaining group the medium was incorporated with 10 μg/ml synthetic RIP. The tests were read after six days and TCID/50 were calculated from CPE.

RSV = experiment: Infectivity inhibition by natural and synthetic RIP, RSV in HEp2; format: cell-based, respiratory syncytial virus; conditions: 10 μg/ml; for Log TCID/50: six days
Protocol: as §1
The approved drug ribovirin was tested for RSV virus in HEp2 cells at 10 μg/ml concentration. […] Synthetic RIP should be more inhibitory by increasing the concentration.

PIV3 = experiment: Infectivity inhibition by natural and synthetic RIP, PIV3 in HEp2; format: cell-based, human parainfluenza type 3; conditions: 10 μg/ml
Protocol: as §1

AKAGSDNTKGGVYPMFGM [SEQ ID. NO.: 2]
antiviral activity (inhibition of rotavirus) of fragment and synthetic versions (rotavirus strain SA 11): most active fragment | antiviral activity (inhibition of rotavirus) of fragment and synthetic versions (rotavirus strain SA 11; listed as SEQ. ID. NO.: 2): effective; also recorded: good results

AKAGSDNTKG [synthetic RIP]
Log Inhibition of infectivity (rotavirus SA 11 strain): 1.9 Log | Log TCID/50 (rotavirus SA 11 strain): 4.5 Log TCID/50 | Log TCID/50 (rotavirus SA 11 strain; listed as Syn RIP): 4.3 Log TCID/50 | Log Inhibition of infectivity (RSV): 1.7 Log | Log TCID/50 (RSV): 5.8 Log TCID/50 | Log TCID/50 (RSV; listed as Syn RIP): 4.5 Log TCID/50 | Log Inhibition of infectivity (PIV3): 2.0 Log | Log TCID/50 (PIV3; six days): 5.8 Log TCID/50 | antiviral activity (inhibition of rotavirus) of fragment and synthetic versions (rotavirus strain SA 11; listed as SEQ. ID. NO.: 4): most active domain; also recorded: good results | antiviral activity (inhibition of rotavirus) of fragment and synthetic versions (rotavirus strain SA 11; listed as SEQ. ID. No.: 4): the most inhibition

A K A G S D N T K G G V Y P M (ALAGSDNTKGGVYPM; SYNTHESIZED. CORRESPONDS TO POSITIONS 1-15 OF SEQ. ID. NO. 2) [SEQ. ID. NO.: 3, synthetic version, 15 amino acids]
antiviral activity (inhibition of rotavirus) of fragment and synthetic versions (rotavirus strain SA 11): effective; also recorded: good results

A K A G S (AKAGS; SYNTHESIZED. CORRESPONDS TO POSITIONS 1-5 OF SEQ. ID. NO. 2) [SEQ. ID. NO.: 5, synthetic version, five amino acids]
antiviral activity (inhibition of rotavirus) of fragment and synthetic versions (rotavirus strain SA 11): good results

NC(=O)c1ncn([C@@H]2O[C@H](CO)[C@@H](O)[C@H]2O)n1 [ribovirin, reference compound]
Log TCID/50 (RSV): 5.4 Log TCID/50

Source: patent US6924353B2, “Inhibitors for RNA viruses” (priority 2003, dated 2005)
